Assay results reported in US8906852B2 (MethylGene Inc., priority 2010, dated 2014).

Molecular target: T1, VEGFR/KDR (Homo sapiens, UniProt P35968)
T1 construct: made in house; host or cells: Sf9 cells (Spodoptera frugiperda), baculovirus
Assay: VEGFR/KDR kinase inhibition, DELFIA assay
Type: biochemical
Conditions: ATP 0.6 uM (2x Km), enzyme 5 nM
In short: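 Enzyme (5 nM) pre-incubated 4 min on ice with inhibitor and Mg-ATP (0.6 uM, 2× Km), then reacted 10-30 min at 30° C on immobilized poly(Glu4,Tyr). EDTA-quenched phosphotyrosine detected with Europium-labeled antibody by time-resolved fluorescence; IC50 from concentration series.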

T1 sequence (P35968 806-1356): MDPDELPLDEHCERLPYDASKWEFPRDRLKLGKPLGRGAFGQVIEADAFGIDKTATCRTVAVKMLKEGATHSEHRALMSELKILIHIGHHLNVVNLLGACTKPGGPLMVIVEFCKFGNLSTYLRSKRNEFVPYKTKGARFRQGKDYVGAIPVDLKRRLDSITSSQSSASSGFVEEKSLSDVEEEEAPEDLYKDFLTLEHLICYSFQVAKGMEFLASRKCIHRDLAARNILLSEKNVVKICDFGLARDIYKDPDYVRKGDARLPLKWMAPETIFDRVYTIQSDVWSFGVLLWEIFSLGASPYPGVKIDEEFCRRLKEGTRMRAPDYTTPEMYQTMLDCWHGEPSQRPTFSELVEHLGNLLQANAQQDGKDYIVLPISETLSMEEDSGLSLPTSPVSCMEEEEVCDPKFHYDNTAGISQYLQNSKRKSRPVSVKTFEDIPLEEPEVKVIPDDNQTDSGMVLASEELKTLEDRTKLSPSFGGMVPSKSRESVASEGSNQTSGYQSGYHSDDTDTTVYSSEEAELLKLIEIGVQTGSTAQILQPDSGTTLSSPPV

Structure (SMILES)	IC50
CN(C)CCCc1ccc(NCc2ccc(-c3cc4nccc(Oc5ccc(NC(=O)NC6CC6)cc5F)c4s3)nc2)cc1 [Compound 339, 1-cyclopropyl-3-(4-(2-(5-((4-(3-(dimethylamino)propyl)phenylamino)methyl)pyridin-2-yl)thieno[3,2-b]pyridin-7-yloxy)-3-fluorophenyl)urea]	< 50 nM
CCN(CC)CCNC(=O)c1ccc(NCc2ccc(-c3cc4nccc(Oc5ccc(NC(=O)NC6CC6)cc5F)c4s3)nc2)cc1 [Compound 340, 4-((6-(7-(4-(3-cyclopropylureido)-2-fluorophenoxy)thieno[3,2-b]pyridin-2-yl)pyridin-3-yl)methylamino)-N-(2-(diethylamino)ethyl)benzamide]	< 50 nM
O=C(Nc1ccc(Oc2ccnc3cc(-c4ccc(CNc5cccc(OCCN6CCOCC6)c5)cn4)sc23)c(F)c1)NC1CC1 [Compound 341, 1-cyclopropyl-3-(3-fluoro-4-(2-(5-((3-(2-morpholinoethoxy)phenylamino)methyl)pyridin-2-yl)thieno[3,2-b]pyridin-7-yloxy)phenyl)urea]	< 50 nM
NC1CCN(Cc2ccc(-c3cc4nccc(Oc5ccc(NC(=O)NC6CC6)cc5F)c4s3)nc2)CC1 [Compound 343, 1-(4-(2-(5-((4-Aminopiperidin-1-yl)methyl)pyridin-2-yl)thieno[3,2-b]pyridin-7-yloxy)-3-fluorophenyl)-3-cyclopropylurea]	< 50 nM
CC(=O)NC1CCN(Cc2ccc(-c3cc4nccc(Oc5ccc(NC(=O)NC6CC6)cc5F)c4s3)nc2)CC1 [Compound 344]	< 50 nM
CC(=O)OCC(=O)NC1CCN(Cc2ccc(-c3cc4nccc(Oc5ccc(NC(=O)NC6CC6)cc5F)c4s3)nc2)CC1 [Compound 345]	< 50 nM
O=C(CO)NC1CCN(Cc2ccc(-c3cc4nccc(Oc5ccc(NC(=O)NC6CC6)cc5F)c4s3)nc2)CC1 [Compound 346]	< 50 nM
O=C(CCn1cncn1)NC1CCN(Cc2ccc(-c3cc4nccc(Oc5ccc(NC(=O)NC6CC6)cc5F)c4s3)nc2)CC1 [Compound 347]	< 50 nM
O=C(CCc1cccnc1)NC1CCN(Cc2ccc(-c3cc4nccc(Oc5ccc(NC(=O)NC6CC6)cc5F)c4s3)nc2)CC1 [Compound 348]	< 50 nM
O=C(CCO)NC1CCN(Cc2ccc(-c3cc4nccc(Oc5ccc(NC(=O)NC6CC6)cc5F)c4s3)nc2)CC1 [Compound 349]	< 50 nM
CS(=O)(=O)NC1CCN(Cc2ccc(-c3cc4nccc(Oc5ccc(NC(=O)NC6CC6)cc5F)c4s3)nc2)CC1 [Compound 350]	< 50 nM
CCOC(=O)NC1CCN(Cc2ccc(-c3cc4nccc(Oc5ccc(NC(=O)NC6CC6)cc5F)c4s3)nc2)CC1 [Compound 351]	< 50 nM
CNC(=O)NC1CCN(Cc2ccc(-c3cc4nccc(Oc5ccc(NC(=O)NC6CC6)cc5F)c4s3)nc2)CC1 [Compound 352]	< 50 nM
CCNC(=O)NC1CCN(Cc2ccc(-c3cc4nccc(Oc5ccc(NC(=O)NC6CC6)cc5F)c4s3)nc2)CC1 [Compound 353]	< 50 nM
CCCNC(=O)NC1CCN(Cc2ccc(-c3cc4nccc(Oc5ccc(NC(=O)NC6CC6)cc5F)c4s3)nc2)CC1 [Compound 354]	< 50 nM
CC(C)NC(=O)NC1CCN(Cc2ccc(-c3cc4nccc(Oc5ccc(NC(=O)NC6CC6)cc5F)c4s3)nc2)CC1 [Compound 355]	< 50 nM
CN1CCN(C(=O)NC2CCN(Cc3ccc(-c4cc5nccc(Oc6ccc(NC(=O)NC7CC7)cc6F)c5s4)nc3)CC2)CC1 [Compound 357, N-(1-((6-(7-(4-(3-Cyclopropylureido)-2-fluorophenoxy)thieno[3,2-b]pyridin-2-yl)pyridin-3-yl)methyl)piperidin-4-yl)-4-methylpiperazine-1-carboxamide]	< 50 nM
CN(CCO)C(=O)NC1CCN(Cc2ccc(-c3cc4nccc(Oc5ccc(NC(=O)NC6CC6)cc5F)c4s3)nc2)CC1 [Compound 358, 1-Cyclopropyl-3-(3-fluoro-4-(2-(5-((4-((2-hydroxyethyl-methylamino)carbonylamino)piperidin-1-yl)methyl)pyridin-2-yl)thieno[3,2-b]pyridin-7-yloxy)phenyl)urea]	< 50 nM
CCN(CC)CCn1cc(-c2cc3nccc(Oc4ccc(NC(=O)NC5CC5)cc4F)c3s2)nn1 [Compound 363]	< 50 nM
O=C(Nc1ccc(Oc2ccnc3cc(-c4cn(CCN5CCOCC5)nn4)sc23)c(F)c1)NC1CC1 [Compound 364]	< 50 nM
CN1CCN(C(=O)Cn2cc(-c3cc4nccc(Oc5ccc(NC(=O)NC6CC6)cc5F)c4s3)nn2)CC1 [Compound 365]	< 50 nM
CN(C)CCn1cc(-c2cc3nccc(Oc4ccc(NC(=O)NC5CC5)cc4F)c3s2)nn1 [Compound 367]	50 to 100 nM
O=C(Nc1ccc(Oc2ccnc3cc(-c4cn(CC(=O)N5CCOCC5)nn4)sc23)c(F)c1)NC1CC1 [Compound 368]	< 50 nM
COC(=O)CCn1cc(-c2cc3nccc(Oc4ccc(NC(=O)NC5CC5)cc4F)c3s2)nn1 [Compound 369]	< 50 nM
O=C(Nc1ccc(Oc2ccnc3cc(-c4cn(CC(=O)N5CCCCC5)nn4)sc23)c(F)c1)NC1CC1 [Compound 372, 1-cyclopropyl-3-(3-fluoro-4-(2-(1-(2-oxo-2-(piperidin-1-yl)ethyl)-1H-1,2,3-triazol-4-yl)thieno[3,2-b]pyridin-7-yloxy)phenyl)urea]	< 50 nM
O=C(Nc1ccc(Oc2ccnc3cc(-c4cn(CC(=O)N5CCCC5)nn4)sc23)c(F)c1)NC1CC1 [Compound 373]	< 50 nM
CCOC(=O)Cc1csc(NC(=O)Cn2cc(-c3cc4nccc(Oc5ccc(NC(=O)NC6CC6)cc5F)c4s3)nn2)n1 [Compound 375]	< 50 nM

Structure (SMILES)	IC50
CN(C)[C@H]1CCN(C(=O)Cn2cc(-c3cc4nccc(Oc5ccc(NC(=O)NC6CC6)cc5F)c4s3)nn2)C1 [Compound 376]	< 50 nM
O=C(Nc1ccc(Oc2ccnc3cc(-c4cn(CCC(=O)N5CCOCC5)nn4)sc23)c(F)c1)NC1CC1 [Compound 377]	< 50 nM
CN1CCN(C(=O)CCn2cc(-c3cc4nccc(Oc5ccc(NC(=O)NC6CC6)cc5F)c4s3)nn2)CC1 [Compound 378]	< 50 nM
O=C(Nc1ccc(Oc2ccnc3cc(-c4cn(CCC(=O)N5CCCCC5)nn4)sc23)c(F)c1)NC1CC1 [Compound 379]	< 50 nM
O=C(Nc1ccc(Oc2ccnc3cc(-c4cn(CCC(=O)N5CCCC5)nn4)sc23)c(F)c1)NC1CC1 [Compound 380]	< 50 nM
O=C(Cn1cc(-c2cc3nccc(Oc4ccc(NC(=O)NC5CC5)cc4F)c3s2)nn1)NCc1cccnc1 [Compound 381]	< 50 nM
CC(C)(C)OC(=O)NC1CCN(C(=O)Cn2cc(-c3cc4nccc(Oc5ccc(NC(=O)NC6CC6)cc5F)c4s3)nn2)C1 (stereo not drawn) [Compound 382]	< 50 nM
O=C(Cn1cc(-c2cc3nccc(Oc4ccc(NC(=O)NC5CC5)cc4F)c3s2)nn1)NCc1ccccn1 [Compound 383]	< 50 nM
CN(C)CCCn1cc(-c2cc3nccc(Oc4ccc(NC(=O)NC5CC5)cc4F)c3s2)nn1 [Compound 384]	< 50 nM
O=C(Nc1ccc(Oc2ccnc3cc(-c4cn(CCCN5CCOCC5)nn4)sc23)c(F)c1)NC1CC1 [Compound 385]	< 50 nM
CC(C)(C)OC(=O)NC1CCN(C(=O)Cn2cc(-c3cc4nccc(Oc5ccc(NC(=O)NC6CC6)cc5F)c4s3)nn2)CC1 [Compound 387]	< 50 nM
CC(C)(C)OC(=O)N1CCN(C(=O)Cn2cc(-c3cc4nccc(Oc5ccc(NC(=O)NC6CC6)cc5F)c4s3)nn2)CC1 [Compound 388]	< 50 nM
O=C(Nc1ccc(Oc2ccnc3cc(-c4cn(CC(=O)N5CCNCC5)nn4)sc23)c(F)c1)NC1CC1 [Compound 389, 1-Cyclopropyl-3-(3-fluoro-4-(2-(1-(2-oxo-2-(piperazin-1-yl)ethyl)-1H-1,2,3-triazol-4-yl)thieno[3,2-b]pyridin-7-yloxy)phenyl)urea]	< 50 nM
CC(=O)OCC(=O)N1CCN(C(=O)Cn2cc(-c3cc4nccc(Oc5ccc(NC(=O)NC6CC6)cc5F)c4s3)nn2)CC1 [Compound 390]	< 50 nM
O=C(Nc1ccc(Oc2ccnc3cc(-c4cn(CC(=O)N5CCN(C(=O)CO)CC5)nn4)sc23)c(F)c1)NC1CC1 [Compound 391]	< 50 nM
CC(C)(C)OC(=O)NCC(=O)N1CCN(C(=O)Cn2cc(-c3cc4nccc(Oc5ccc(NC(=O)NC6CC6)cc5F)c4s3)nn2)CC1 [Compound 392]	< 50 nM
CCNC(=O)N1CCN(C(=O)Cn2cc(-c3cc4nccc(Oc5ccc(NC(=O)NC6CC6)cc5F)c4s3)nn2)CC1 [Compound 394]	< 50 nM
NC1CCN(C(=O)Cn2cc(-c3cc4nccc(Oc5ccc(NC(=O)NC6CC6)cc5F)c4s3)nn2)CC1 [Compound 395]	< 50 nM
O=C(Nc1ccc(Oc2ccnc3cc(-c4ccc(C(=O)N5CCN(CCOCCO)CC5)cn4)sc23)c(F)c1)NC1CC1 [Compound 396]	< 50 nM
CN(C(=O)OC(C)(C)C)C1CCN(C(=O)c2ccc(-c3cc4nccc(Oc5ccc(NC(=O)NC6CC6)cc5F)c4s3)nc2)CC1 [Compound 397]	< 50 nM
CNC1CCN(C(=O)c2ccc(-c3cc4nccc(Oc5ccc(NC(=O)NC6CC6)cc5F)c4s3)nc2)CC1 [Compound 399]	< 50 nM
NC1CCN(C(=O)c2ccc(-c3cc4nccc(Oc5ccc(NC(=O)NC6CC6)cc5F)c4s3)nc2)CC1 [Compound 400]	< 50 nM
CNC1CCN(Cc2ccc(-c3cc4nccc(Oc5ccc(NC(=O)NC6CC6)cc5F)c4s3)nc2)CC1 [Compound 401]	< 50 nM
NC1CN(Cc2ccc(-c3cc4nccc(Oc5ccc(NC(=O)NC6CC6)cc5F)c4s3)nc2)C1 [Compound 402]	< 50 nM
O=C(Nc1ccc(Oc2ccnc3cc(-c4ccc(COC5CNC5)cn4)sc23)c(F)c1)NC1CC1 [Compound 405, 1-(4-(2-(5-((Azetidin-3-yloxy)methyl)pyridin-2-yl)thieno[3,2-b]pyridin-7-yloxy)-3-fluorophenyl)-3-cyclopropylurea]	< 50 nM
CCNC(=O)N(C)C1CCN(C(=O)c2ccc(-c3cc4nccc(Oc5ccc(NC(=O)NC6CC6)cc5F)c4s3)nc2)CC1 [Compound 406]	< 50 nM
CCNC(=O)N(C)C1CCN(Cc2ccc(-c3cc4nccc(Oc5ccc(NC(=O)NC6CC6)cc5F)c4s3)nc2)CC1 [Compound 407]	< 50 nM
